Assays:
[1] = target: T1, PTH receptor (Canis lupus familiaris, UniProt Q9TU31); format: binding, canine
T1 construct: canine renal plasma membranes; from tissue; host or cells: canine kidney (renal plasma membranes)
T1 sequence (Q9TU31 29-595): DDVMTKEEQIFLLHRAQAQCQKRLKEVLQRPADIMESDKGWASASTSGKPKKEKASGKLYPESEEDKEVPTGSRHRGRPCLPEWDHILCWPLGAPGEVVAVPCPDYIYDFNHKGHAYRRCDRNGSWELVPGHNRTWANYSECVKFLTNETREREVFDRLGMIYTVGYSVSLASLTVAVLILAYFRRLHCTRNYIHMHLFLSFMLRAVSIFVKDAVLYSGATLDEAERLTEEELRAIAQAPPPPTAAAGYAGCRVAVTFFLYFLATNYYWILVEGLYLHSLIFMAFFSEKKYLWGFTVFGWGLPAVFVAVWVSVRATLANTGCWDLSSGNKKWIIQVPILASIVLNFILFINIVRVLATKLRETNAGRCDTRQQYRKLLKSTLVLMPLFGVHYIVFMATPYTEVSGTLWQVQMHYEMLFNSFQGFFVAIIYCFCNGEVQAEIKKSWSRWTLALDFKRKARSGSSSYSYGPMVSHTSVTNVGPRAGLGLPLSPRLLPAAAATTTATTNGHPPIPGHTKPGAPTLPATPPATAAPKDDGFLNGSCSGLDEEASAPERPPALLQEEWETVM
Experimental: (§1) Receptor binding assays were carried out in canine renal plasma membranes and in UMR 106-H5 rat osteosarcoma cells as previously described in detail (Ref. 14,32), using ^125 I-labeled PTH(1-34)amide as the radioligand. Binding potency (IC50) was quantified as the concentration of unlabeled peptide required for half-maximal displacement of the radioligand. […] Adenylate cyclase activity was assessed in canine renal membranes by the conversion of [α-32p ] ATP to [^32 P] cyclic AMP, essentially as described, except for the addition of 100 micromolar GTP (Ref. 33,34). Adenylate cyclase activity in UMR 106-H5 cells was assessed essentially as described (Ref. 35). In brief, cells were incubated with [3H]adenine 1 micro Ci/ml of serum-free MEM for two hours at 37° C. to label the endogenous ATP pool. Cells were then exposed to 0.4 mM IBMX for 10 min, followed by the appropriate peptide for an additional 10 min at ambient temperature. The cells are then scraped in 20% TCA, and [3H]cyclic AMP is isolated by the column procedure of Salomon et al. (Ref. 36). Potency in the adenylate cyclase assays (Ka) is the concentration of peptide producing half-maximal enzyme activation.

[2] = target: T1, PTH receptor; format: biochemical, canine
Experimental: as §1

[3] = target: T2, PTH receptor (Rattus norvegicus, UniProt P25961); format: binding
T2 construct: endogenous in cells; host or cells: UMR 106-H5 rat osteosarcoma cells
T2 sequence (P25961 27-591): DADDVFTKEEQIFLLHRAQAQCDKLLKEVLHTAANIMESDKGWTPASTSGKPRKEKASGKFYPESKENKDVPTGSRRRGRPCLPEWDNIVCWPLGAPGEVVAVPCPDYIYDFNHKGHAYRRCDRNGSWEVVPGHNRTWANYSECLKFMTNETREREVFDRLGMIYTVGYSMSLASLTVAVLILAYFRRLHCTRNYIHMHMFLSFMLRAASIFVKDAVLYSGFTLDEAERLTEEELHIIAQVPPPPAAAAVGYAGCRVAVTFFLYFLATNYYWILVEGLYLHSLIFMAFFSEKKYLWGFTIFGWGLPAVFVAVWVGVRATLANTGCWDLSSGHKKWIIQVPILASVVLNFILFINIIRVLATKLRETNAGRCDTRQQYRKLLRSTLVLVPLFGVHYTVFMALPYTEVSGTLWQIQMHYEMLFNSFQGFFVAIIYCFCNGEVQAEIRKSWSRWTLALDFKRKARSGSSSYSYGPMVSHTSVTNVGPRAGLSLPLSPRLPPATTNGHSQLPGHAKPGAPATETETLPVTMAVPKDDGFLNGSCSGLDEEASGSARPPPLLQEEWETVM
Experimental: as §1

[4] = target: T2, PTH receptor; format: cell-based
Experimental: as §1, with “Assays were conducted using […] cells. These assays were performed as described in Cohen et al. (1991), J. Biological Chem., 266(3), 1997 and in the Experimental section, e.g. Example 11. Receptor” for “Receptor”

[5] = tested on: PTH receptors
[6] = tested on: PTH receptor
[7] = target: T3, PTH receptor (Homo sapiens, UniProt Q03431)
T3 sequence (Q03431 27-593): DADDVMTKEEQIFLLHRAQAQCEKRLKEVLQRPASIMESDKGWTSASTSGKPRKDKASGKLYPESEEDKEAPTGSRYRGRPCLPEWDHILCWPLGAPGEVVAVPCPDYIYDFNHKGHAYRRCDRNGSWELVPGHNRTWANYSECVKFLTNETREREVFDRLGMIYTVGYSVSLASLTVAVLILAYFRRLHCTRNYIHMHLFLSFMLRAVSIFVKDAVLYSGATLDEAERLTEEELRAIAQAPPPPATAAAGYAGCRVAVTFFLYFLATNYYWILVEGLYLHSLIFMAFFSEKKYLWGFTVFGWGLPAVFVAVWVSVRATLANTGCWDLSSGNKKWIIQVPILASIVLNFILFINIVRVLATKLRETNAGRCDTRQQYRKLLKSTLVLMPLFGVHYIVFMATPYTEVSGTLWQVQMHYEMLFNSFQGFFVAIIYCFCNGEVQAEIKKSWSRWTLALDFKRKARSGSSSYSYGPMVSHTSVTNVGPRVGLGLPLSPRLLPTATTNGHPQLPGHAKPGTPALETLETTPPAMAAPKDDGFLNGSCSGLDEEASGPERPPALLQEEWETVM

[8] = target: T3, PTH receptor; remark: listed apart in the source
[9] = target: T3, PTH receptor; format: cell-based; parameters: In intact rat (UMR-106) and human (SaOS-2) bone cell lines; endogenous in cells; host or cells: SaOS-2 human bone (osteosarcoma) cells
From the text: The renal membrane assay values listed reflect the effect of the polypeptide analogue with kidney tissue receptors. The UMR-106-H5 assay values reflect the effect of the peptide analogue with rat bone tissue receptors. The Sa05-2 assay values reflect the effect of the peptides for human bone tissue receptors.

[10] = aqueous conditions in the absence of amphiphiles (Ref. 37-39); cited from earlier work
[11] = Table 5A, intact cells, hPTH(1-34) = 100

Compound | RENAL MEMBRANES Canine Potency (B) [1] | RENAL MEMBRANES Canine Potency (AC) [2] | RENAL MEMBRANES Canine Activity (AC) ([2]; Table 5B, hPTH(1-34) = 100) | BONE CELLS Rat(UMR-106) Potency (B) [3] | BONE CELLS Rat(UMR-106) Potency (AC) [4] | BONE CELLS Rat(UMR-106) Activity (AC) [4, 11] | KIDNEY CELLS (CK) Potency (B) [5] | potency of native [ser^3]HPTH(1-34) retained in binding to PTH receptors [5] | KIDNEY CELLS (CK) Potency (AC) [6] | BONE CELL MEMBRANES Human SaOS-2 Potency (AC) [7] | BONE CELL MEMBRANES Human SaOS-2 Activity (AC) ([7]; Table 5B, hPTH(1-34) = 100) | RENAL MEMBRANES Human Potency (AC) [8] | RENAL MEMBRANES Human Activity (AC) ([8]; Table 5B, hPTH(1-34) = 100) | BONE CELLS Human(SaOS-2) Potency (AC) [9] | BONE CELLS Human(SaOS-2) Activity (AC) [9, 11] | alpha-helical residues, previous estimates [10]
CC[C@H](C)[C@H](NC(=O)[C@H](CCC(=O)O)NC(=O)[C@H](CC(C)C)NC(=O)[C@@H](NC(=O)[C@@H](N)CO)C(C)C)C(=O)N[C@@H](CCC(N)=O)C(=O)N[C@@H](CC(C)C)C(=O)N[C@@H](CCSC)C(=O)N[C@@H](Cc1c[nH]cn1)C(=O)N[C@@H](CC(N)=O)C(=O)N[C@@H](CC(C)C)C(=O)NCC(=O)N[C@@H](CCCCN)C(=O)N[C@@H](Cc1c[nH]cn1)C(=O)N[C@@H](CC(C)C)C(=O)N[C@@H](CC(N)=O)C(=O)N[C@@H](CO)C(=O)N[C@@H](CCSC)C(=O)N[C@@H](CCC(=O)O)C(=O)N[C@@H](CCCNC(=N)N)C(=O)N[C@H](C(=O)N[C@@H](CCC(=O)O)C(=O)N[C@@H](Cc1c[nH]c2ccccc12)C(=O)N[C@@H](CC(C)C)C(=O)N[C@@H](CCCNC(=N)N)C(=O)N[C@@H](CCCCN)C(=O)N[C@@H](CCCCN)C(=O)N[C@@H](CC(C)C)C(=O)N[C@@H](CCC(N)=O)C(=O)N[C@@H](CC(=O)O)C(=O)N[C@H](C(=O)N[C@@H](Cc1c[nH]cn1)C(=O)N[C@@H](CC(N)=O)C(=O)N[C@@H](Cc1ccccc1)C(=O)O)C(C)C)C(C)C [[leu^3]hPTH(1-34), [leu^3] HPTH(1-34)] | 7% | 1% | 47% | 6% | 13% | 100% | 22% | 5-15% | 16% | 8% | 14% | 3% | 35% | 11% | 86% | 
bPTH(7-34) (FMHNLGKHLSSMERVEWLRKKLQDVHNF; Parathyroid hormone; UniProt P01268 38-65, looked up, fragment) |  |  |  |  |  |  |  |  |  |  |  |  |  |  |  | 9 residues

From patent US5849695A, “Parathyroid hormone analogues useful for treatment of osteoporosis and disorders of calcium meatabolism in mammals” (The Regents of the University of California, priority 1993, dated 1998)
